{"source": "patent US11541049B2", "about": "“Tetrahydroisoquinoline derivatives, preparation process and use thereof” (SICHUAN KELUN-BIOTECH BIOPHARMACEUTICAL CO., LTD., priority 2018, dated 2023)", "key": {"[1]": {"molecular_target": "human coagulation factor VIIa (Homo sapiens (Human), UniProt P08709)", "experiment": "Determination of inhibition of factor VIIa", "format": "biochemical", "procedure": "Enzyme: human coagulation factor VIIa; manufacturer: Haematologic Technologies;\nSubstrate: Boc-VPR-AMC; R&D System;\nTissue factor: tissue factor F3; manufacturer: Sino Biological;\nThe test compounds were dissolved in assay buffer (50 mM Hepes, 150 mM NaCl, 5 mM CaCl2, pH 7.4) at a final concentration of 10 μM and 1 μM. Coagulation factor VIIa and tissue factor were mixed at an equimolar concentration. After incubation at 37° C. for 15 minutes, the test compound was further added. Incubation was conducted at room temperature for 10 minutes. Then the substrate (Boc-VPR-AMC) was added to initiate the reaction. For reading fluorescence signal value, enzyme kinetic mode was used. The wavelength of excitation light was 380 nm, and the wavelength of emission light was 460 nm. The IC50 was calculated in a similar manner to experimental Example 1."}, "[2]": {"molecular_target": "human coagulation factor Xa (Homo sapiens (Human), UniProt P00742)", "experiment": "Determination of inhibition of factor Xa", "format": "biochemical", "procedure": "Enzyme: human coagulation factor Xa; manufacturer: R&D System;\nSubstrate: Mca-RPKPVE-Nval-WRK(Dnp)-NH2; manufacturer: R&D;\nThe test compounds were dissolved in assay buffer (50 mM Tris, 150 mM NaCl, 10 mM CaCl2, 0.05% Brij35, pH 7.5) at a final concentration of 10 μM and 1 μM. Coagulation factor Xa and test compound were added to the well plate, and incubation was conducted at room temperature for 10 minutes after mixed thoroughly. The substrate (Mca-RPKPVE-Nval-WRK(Dnp)-NH2) was added to initiate the reaction. For reading fluorescence signal value, enzyme kinetic mode was used. The wavelength of excitation light was 320 nm, and the wavelength of emission light was 400 nm. The IC50 was calculated in a manner similar to experimental Example 1."}, "rabbit plasma": {"test_system": "rabbit plasma", "experiment": "Effect on coagulation in vitro (aPTT and PT), rabbit plasma", "conditions": "final concentration 10NM (so in the source), n = 3", "description": "(§1) aPTT reagent (purchased from Sysmex);\n(§2) PT reagent (purchased from Sysmex);\n(§3) The coagulation pathway includes the extrinsic coagulation pathway and the intrinsic coagulation pathway. The parameter associated with the extrinsic coagulation pathway is prothrombin time, expressed as PT; the parameter associated with the intrinsic coagulation pathway is activated partial thromboplatin time, expressed as aPTT.\n(§4) After anticoagulation, blood of different species (rabbit, human) was subjected to centrifugation. The upper layer of plasma was collected and divided into several aliquots. The test compounds were added to make the final concentration of test compound to be 10NM. Incubation was conducted at 37° C. after mixed thoroughly. Then the samples were put into a coagulation analyzer (Sysmex CA1500, Sysmex, Japan) for the aPTT and PT assays. Blank plasma (without test compound) was used as a reference, and the ratio values of aPTT and PT of all samples and blank plasmas were analyzed, the results are shown in table 3."}, "human plasma": {"test_system": "human plasma", "experiment": "Effect on coagulation in vitro (aPTT and PT), human plasma", "conditions": "final concentration 10NM (so in the source), n = 3", "description": "as §1, §2, §3, §4"}, "[3]": {"experiment": "Solubility test in pH 7.4 buffer", "format": "physicochemical", "conditions": "buffer (pH 7.4), aqueous buffer, thermodynamic from solid, 25° C.", "procedure": "The test compound was dissolved in a buffer (pH 7.4) at room temperature until the solution reached supersaturation. The solution was shaken at 25° C. by a constant temperature mixer for 4 hours, filtered through a 0.45 μm aqueous membrane filter, and the concentration was measured by UPLC. 1 mg of the test compound was accurately weighed, and dissolved in 10 mL volumetric flask as the reference substance. The reference substance was measured using the same process. The solubility of the test compound was calculated according to external standard process, and the results are shown in table 4."}, "[4]": {"experiment": "Pharmacokinetics study in male SD rats, intravenous injection", "format": "in vivo", "procedure": "(§5) Pharmacokinetics characteristics were examined by administering compound of the present disclosure and the reference compound (BMS-962212) to male SD rats through intravenous injection (IV). Blood was collected at various time points after administration. The blood was anticoagulated with EDTA-K2. Plasma samples were obtained by centrifugation within 30 min after blood collection, and retained at −80° C. The plasma samples were processed to precipitate the proteins and then analyzed by LC-MS/MS.\n(§6) The pharmacokinetic parameters were calculated using WinNonlin 6.3 software by employing a non-compartmental model."}, "[5]": {"experiment": "Pharmacokinetics study in male rabbits, intravenous injection", "format": "in vivo", "procedure": "(§7) Pharmacokinetics properties were examined by administering compound of the present disclosure and the reference compound (BMS-962212) to male rabbits through intravenous injection (IV). Blood was collected at various time points after administration. The blood was anticoagulated with EDTA-K2. Plasma samples were obtained by centrifugation, and retained at −80° C. The plasma samples were processed to precipitate the proteins and then analyzed by LC-MS/MS.\nas §6"}, "[6]": {"experiment": "Pharmacokinetics study in Beagle dogs, intravenous injection", "format": "in vivo, Beagle dog", "procedure": "Pharmacokinetics properties were examined by administering compound of the present disclosure and the reference compound (BMS-962212) to Beagle dog through intravenous injection (IV). Blood was collected at various time points after administration. The blood was anticoagulated with EDTA-K2. Plasma samples were obtained by centrifugation, and retained at −80° C. The plasma samples were processed to precipitate the proteins and then analyzed by LC-MS/MS.\nas §6"}, "[7]": {"experiment": "Repeated dose toxicity study in SD rats, intravenous infusion, daily for 14 days", "format": "in vivo", "conditions": "rat, in vivo, daily for 14 days, SD rats, read-out: No-observed-adverse-effect level (NOAEL)", "procedure": "The administration was repeated daily for 14 days, while clinical observation, body weight and food intake were recorded. […] Observation by gross anatomy and examination of histopathology were also conducted."}, "[8]": {"experiment": "Blood exposure after intravenous administration in various animal species (summary)", "format": "in vivo", "conditions": "rat, rabbit, dog", "procedure": "as §5, §7\nPharmacokinetics properties were examined by administering compound of the present disclosure and the reference compound (BMS-962212) to Beagle dog through intravenous injection (IV). Blood was collected at various time points after administration. The blood was anticoagulated with EDTA-K2. […] The plasma samples were processed to precipitate the proteins and then analyzed by LC-MS/MS."}, "in vivo": {"experiment": "in vivo", "conditions": "SD, rat, iv"}, "[9]": {"conditions": "male, SD, rat, plasma, rats, 1 mg/kg"}}, "data": [{"smiles": "N[C@@H](CCCCNC(=O)CN1CC=C(c2cccc3c2CCN(C(=O)[C@H]2CC(c4cccc(Cl)c4F)=NO2)[C@@H]3C(=O)Nc2ccc(C(=O)O)cc2)CC1)C(=O)O", "note": "[Example 5, 4-((S)-5-(1-(2-(((S)-5-amino-5-carboxypentyl)amino)-2-oxoethyl)-1,2,3,6-tetrahydropyridin-4-yl)-2-((R)-3-(3-chloro-2-fluorophenyl)-4,5-dihydroisoxazole-5-carbonyl)-1,2,3,4-tetrahydroisoquinoline-1-carboxamido)benzoic acid]", "values": [{"measurement": "inhibitory effect on coagulation factor VIIa (in words)", "setting": "[1]", "value": "no significant inhibitory effect"}, {"measurement": "IC50", "setting": "[1]; tested at final concentration of 10 μM and 1 μM, with tissue factor", "value": "> 10", "unit": "µM"}, {"measurement": "inhibitory effect on coagulation factor Xa (in words)", "setting": "[2]", "value": "no significant inhibitory effect"}, {"measurement": "IC50", "setting": "[2]; tested at final concentration of 10 μM and 1 μM", "value": "~10", "unit": "µM"}, {"measurement": "Ratio of PT to that of blank plasma", "setting": "rabbit plasma", "value": 1.00}, {"measurement": "Ratio of aPTT to that of blank plasma", "setting": "rabbit plasma", "value": 1.84}, {"measurement": "Ratio of PT to that of blank plasma", "setting": "human plasma", "value": 1.03}, {"measurement": "Ratio of aPTT to that of blank plasma", "setting": "human plasma", "value": 2.95}, {"measurement": "solubility at 4 h", "setting": "[3]", "value": 10.8, "unit": "mg/mL"}, {"measurement": "AUC(0-inf)", "setting": "[4]; [9]", "value": "2890 ± 473", "unit": "ng·h/mL"}, {"measurement": "AUC(0-t)", "setting": "[4]; [9]", "value": "2890 ± 473", "unit": "ng·h/mL"}, {"measurement": "Cmax", "setting": "[4]; [9]", "value": "2990 ± 629", "unit": "ng/mL"}, {"measurement": "clearance", "setting": "[4]; [9]", "value": "5.88 ± 1.07", "unit": "mL/min/kg"}, {"measurement": "half-life", "setting": "[4]; [9]", "value": "0.78 ± 0.06", "unit": "h"}, {"measurement": "AUClast relative to that of the reference compound", "setting": "[4]; rat plasma, 1 mg/kg vs 5 mg/kg reference, dosage normalized", "value": 3.53, "unit": "times"}, {"measurement": "T1/2 relative to that of the reference compound", "setting": "[4]; rat, 1 mg/kg vs 5 mg/kg reference", "value": 4.11, "unit": "times"}, {"measurement": "Cmax relative to that of the reference compound", "setting": "[4]; rat, 1 mg/kg vs 5 mg/kg reference, dosage normalized", "value": 1.35, "unit": "times"}, {"measurement": "AUClast relative to that of the reference compound", "setting": "[5]; 1 mg/kg each", "value": 12.04, "unit": "times"}, {"measurement": "Cmax relative to that of the reference compound", "setting": "[5]; 1 mg/kg each", "value": 4.74, "unit": "times"}, {"measurement": "T1/2 relative to that of the reference compound", "setting": "[5]; 1 mg/kg each", "value": 2.65, "unit": "times"}, {"measurement": "AUC(0-inf)", "setting": "[5]; male, rabbit, plasma, 1 mg/kg", "value": "5740 ± 2270", "unit": "ng·h/mL"}, {"measurement": "AUC(0-t)", "setting": "[5]; male, rabbit, plasma, 1 mg/kg", "value": "5730 ± 2270", "unit": "ng·h/mL"}, {"measurement": "Cmax", "setting": "[5]; male, rabbit, plasma, 1 mg/kg", "value": "6950 ± 1900", "unit": "ng/mL"}, {"measurement": "Vd", "setting": "[5]; male, rabbit, plasma, 1 mg/kg", "value": "0.3 ± 0.09", "unit": "L/kg"}, {"measurement": "clearance", "setting": "[5]; male, rabbit, plasma, 1 mg/kg", "value": "3.18 ± 1.06", "unit": "mL/min/kg"}, {"measurement": "half-life", "setting": "[5]; male, rabbit, plasma, 1 mg/kg", "value": "1.14 ± 0.26", "unit": "h"}, {"measurement": "apparent volume of distribution as share of that of the reference compound", "setting": "[5]; same dosage 1 mg/kg", "value": 23, "unit": "%"}, {"measurement": "AUClast relative to that of the reference compound", "setting": "[6]; 0.5 mg/kg each", "value": 20.38, "unit": "times"}, {"measurement": "Cmax relative to that of the reference compound", "setting": "[6]; 0.5 mg/kg each", "value": 2.67, "unit": "times"}, {"measurement": "T1/2 relative to that of the reference compound", "setting": "[6]; 0.5 mg/kg each", "value": 7.25, "unit": "times"}, {"measurement": "AUC(0-inf)", "setting": "[6]; dog, plasma, 0.5 mg/kg", "value": "18100 ± 683", "unit": "ng·h/mL"}, {"measurement": "AUC(0-t)", "setting": "[6]; dog, plasma, 0.5 mg/kg", "value": "17200 ± 370", "unit": "ng·h/mL"}, {"measurement": "Cmax", "setting": "[6]; dog, plasma, 0.5 mg/kg", "value": "3950 ± 808", "unit": "ng/mL"}, {"measurement": "Vd", "setting": "[6]; dog, plasma, 0.5 mg/kg", "value": "0.24 ± 0.02", "unit": "L/kg"}, {"measurement": "clearance", "setting": "[6]; dog, plasma, 0.5 mg/kg", "value": "0.46 ± 0.02", "unit": "mL/min/kg"}, {"measurement": "half-life", "setting": "[6]; dog, plasma, 0.5 mg/kg", "value": "6.02 ± 0.8", "unit": "h"}, {"measurement": "apparent volume of distribution as share of that of the reference compound", "setting": "[6]; same dosage 0.5 mg/kg", "value": 34, "unit": "%"}, {"measurement": "NOAEL at 14 days", "setting": "[7]", "value": 60, "unit": "mg/kg"}, {"measurement": "exposure in blood relative to that of BMS-962212", "setting": "[8]", "value": "3-25 times"}, {"measurement": "MTD at 7 days", "setting": "in vivo", "value": "≥ 200", "unit": "mg/kg"}]}]}
